Assay results reported in patent US20100189683A1, “Pulsatile Dosing of Gossypol for Treatment of Disease” (Ascenta Therapeutics, Inc., priority 2008, published 2010).
Structures can show the parent of a compound that is named as a salt.

Columns and labels:
[1] = test system: A549 NSCLC xenograph model; assay: In vivo efficacy in the A549 NSCLC xenograft model; set-up: species or system nude mice; conditions: intermittent dosing 60 mg/kg po days 1-3 and 15-17, in combination with taxotere 30 mg/kg iv single dose
Experimental: The in vivo efficacy of (−)-gossypol acetic acid co-crystals alone or in combination with taxotere (TXT) in the A549 NSCLC xenograph model is shown in FIGS. 2 and 3. About 5 million cells of A549 were inoculated into nude mice, 8 mice per dosing group. In one experiment, (−)-gossypol acetic acid co-crystals were administered at 15 mg/kg, oral dosing (po), daily for 21 days, either alone or in combination with taxotere at 8 mg/kg, iv, once a week for three weeks (FIG. 2). In another experiment, (−)-gossypol acetic acid co-crystals were administered at 60 mg/kg, po, daily for three days per week (day 1-3/week) every two weeks (days 1-3, and then days 15-17), either alone or in combination with taxotere at 30 mg/kg, iv, single dose only, once every three weeks (FIG. 3).

[2] = test system: patients with histologically confirmed metastatic prostate cancer; assay: CS-202 Phase I data from 9 patients (toxicity); format: in vivo, human; conditions: 40-60 mg BID days 1-3 every 21 days with docetaxel 75 mg/m2 and prednisone
[3] = test system: patients with metastatic prostate cancer, hormone-refractory; assay: CS-202 Phase I-II, Cohort A (hormone-refractory patients): PSA and tumor response; format: in vivo, human; conditions: with docetaxel and prednisone
Text: See N. Engl. J. Med. 351:1502-1512 (2004) for further details of TAX 327 clinical study.
(“D”=docetaxel; “P”=prednisone).

[4] = test system: men with docetaxel-refractory castration-resistant prostate cancer; assay: CS-202 Cohort B: AT-101 added to docetaxel/prednisone in docetaxel-refractory CRPC
Experimental: An open-label non-randomized Phase I-II clinical trial (labeled CS-202) is being carried out on patients with histologically confirmed metastatic prostate cancer. Briefly, patients are divided in into two cohorts: Cohort A-Patients with rising PSA level on hormonal therapy, i.e., hormone-refractory patients, and Cohort B-Patients with PSA or disease progression on docetaxel (taxotere), i.e., docetaxel-refractory patients. All patients were treated with 40-60 mg (−)-gossypol acetic acid co-crystal 40-60 mg BID days 1-3, every 21 days, 75 mg/m2 docetaxel q 21 days and prednisone, daily per label.
Treatment regimen in this study is: oral AT-101 40 mg BID×3 days q 3 weeks, IV taxotere 75 mg/m^2 q 3 weeks, and oral prednisone 5 mg BID daily.
A clinical study of docetaxel and prednisone in combination with AT-101 using a pulse administration schedule in men with docetaxel-refractory castration-resistant prostate cancer (CRPC) is ongoing (see Example 4, cohort B patients). A strict definition of docetaxel refractoriness which requires that the patient have progression as measured by PSA levels, RECIST, or bone scan while receiving docetaxel (D) and prednisone (P) is being used in the study. RECIST criteria are widely-used and well known in the art. The intervention is to continue docetaxel and prednisone treatment and to add AT-101.

[5] = test system: patients with advanced cancer; assay: Pulsatile dose administration of AT-101 b.i.d. times 3 days every other week, clinical efficacy and case summaries; format: in vivo, human
Text: Following pulsatile dose administration of (−)-gossypol to patients with advanced cancer, clinical efficacy (e.g., patients having stable disease for 60 days or more) was monitored. […] The case summaries are as follows:
Patient 1 is a person diagnosed with non-small cell lung cancer (NSCLC) by bronchial biopsy in March 2005. The patient initially received the Carboplatin/paclitaxel with radiation therapy as adjuvant therapy from April to May 2005. Disease progression was diagnosed in September 2005 and treatment with erlotinib was begun in October 2005. The patient had progressive disease in January 2006. The patient started on treatment with AT-101 40 mg b.i.d. times 3 days every other week in March 2006. When the patient started on treatment with AT-101 they had extensive lymph node disease that remained stable on study drug for approximately 939 days (2.6 years). The patient's baseline signs and symptoms included: anemia, fatigue and productive cough. Their medical history includes: history of smoking, COPD, BPH, hypercholesterolemia, hypophosphatemia, RT induced esophagitis.
Patient 2 is a person diagnosed with a neuroendocrine carcinoma by a CT guided biopsy of an abdominal mass in May 2002. The patient was initially treated with interferon alpha from September 2002 to March 2003 but the disease progressed. Subsequently, the patient was treated with an investigational VEGFR2 targeted agent, SUO11248, from August 2003 to March 2004 until progression. The patient next received interferon plus capecitabine from August 2004 to June 2005 until disease progression in July 2005. Next, the patient was treated with […] doxirubicin from July 2005 to January 2006 until disease progression in February 2006. They started on the AT-101 treatment in February 2006 and received AT-101 30 mg b.i.d. times 3 days every other week. At the start of therapy, disease was present in the liver, abdomen, and pelvis and notable for numerous mesenteric masses. These remained stable on study for 18 cycles (534 days). The patient came off study due to increased weight loss and the investigator decision to send the patient for surgery for tumor debulking. The patient's baseline signs and symptoms included tumor pain, fatigue and weight loss. The patient's medical history included: GERD, HTN, congenital pulmonary cysts, anemia, and diarrhea.

[6] = test system: men with treatment naïve CRPC; assay: Single agent AT-101 administration (20-30 mg daily); format: in vivo, human; conditions: single agent AT-101 at 20-30 mg daily
Text: Better compliance with a 3-day dosing regimen, compared to daily for 21 of 28 days, for example, is expected.

Bcl-2 = Bcl-2 (Homo sapiens, UniProt P10415); conditions: U.S. Patent Application No. 2003/0008924; cited from earlier work
Bcl-XL = Bcl-XL (Homo sapiens, UniProt Q07817); conditions: U.S. Patent Application No. 2003/0008924; cited from earlier work
Mcl-1 = Mcl-1 (Homo sapiens, UniProt Q07820); conditions: U.S. Patent Application No. 2003/0008924; cited from earlier work
[7] = test system: all-corners with relapsed SCLC; conditions: oral versus i.v. topotecan HCl; cited from earlier work
[8] = 20 patients with measurable disease by RECIST
[9] = AT-101 added to continued docetaxel and prednisone
[10] = first 11 patients of Cohort B, with docetaxel and prednisone
[11] = Patient 1, NSCLC, 40 mg b.i.d. times 3 days every other week
[12] = Patient 2, 30 mg b.i.d. times 3 days every other week

Chain of Bcl-2 (P10415 whole entry): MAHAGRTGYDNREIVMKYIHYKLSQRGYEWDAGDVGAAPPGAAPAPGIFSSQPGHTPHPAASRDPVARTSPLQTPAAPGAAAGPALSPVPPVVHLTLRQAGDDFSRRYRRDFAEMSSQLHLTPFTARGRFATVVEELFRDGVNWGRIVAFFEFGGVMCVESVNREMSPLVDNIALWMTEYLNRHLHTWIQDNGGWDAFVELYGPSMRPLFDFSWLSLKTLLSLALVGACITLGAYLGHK
Chain of Bcl-XL (Q07817 whole entry): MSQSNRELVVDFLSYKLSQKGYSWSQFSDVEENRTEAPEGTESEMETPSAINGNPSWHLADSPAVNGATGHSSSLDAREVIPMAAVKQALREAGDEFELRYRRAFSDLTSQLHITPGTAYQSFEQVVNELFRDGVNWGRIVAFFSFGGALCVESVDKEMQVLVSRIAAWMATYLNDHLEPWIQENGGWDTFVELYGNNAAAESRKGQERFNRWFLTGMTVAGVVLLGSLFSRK
Chain of Mcl-1 (Q07820 whole entry): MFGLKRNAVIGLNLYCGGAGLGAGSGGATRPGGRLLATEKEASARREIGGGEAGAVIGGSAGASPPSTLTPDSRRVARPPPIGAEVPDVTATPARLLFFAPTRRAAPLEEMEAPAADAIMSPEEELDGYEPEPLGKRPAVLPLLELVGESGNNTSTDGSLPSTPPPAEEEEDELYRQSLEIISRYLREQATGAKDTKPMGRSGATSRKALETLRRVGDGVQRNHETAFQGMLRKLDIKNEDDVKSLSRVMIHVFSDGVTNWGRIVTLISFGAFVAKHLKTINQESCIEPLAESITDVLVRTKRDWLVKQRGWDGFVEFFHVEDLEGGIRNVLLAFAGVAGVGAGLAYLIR

SMILES: Cc1cc2c(C(C)C)c(O)c(O)c(C=O)c2c(O)c1-c1c(C)cc2c(C(C)C)c(O)c(O)c(C=O)c2c1O [AT-101, (−)-gossypol acetic acid co-crystal]
- Tumor volume [1]: effectively reduces tumor volume
- Docetaxel hematological toxicity [2]: no increase in docetaxel hematological toxicity
- Dose-limiting toxicities [2]: no dose-limiting toxicities
- Severe gastrointestinal toxicity [2]: no severe gastrointestinal toxicity
- PSA response versus time ([3]; Cohort A): PSA reductions occur early in the treatment and are long lasting
- PSA response ([3]; first 20 patients of Cohort A): high rate of PSA response
- Patients refractory at the onset of treatment ([3]; first 20 patients of Cohort A): only one patient out of 20 was refractory
- Complete response (CR) [4, 8]: one complete response (CR)
- PRs (RECIST) [4, 8]: 4
- Patients with major tumor shrinkage based on radiographic assessments ([4]; 20 patients with measurable disease by RECIST criteria at baseline): 6/20
- Patients who have achieved a PSA partial response (PR) (50% or greater reduction) [4, 9]: 7/35
- Patients with some PSA reduction [4, 9]: 20/35
- PSA response kinetics ([4]; added to a taxotere/prednisone regimen, patients of Cohort B): abrupt reversal of the PSA response (from rising to falling)
- Reduction in tumor volume ([4]; another single patient with measurable disease): 29%
- Patients having a 30+% decline in PSA response [4, 10]: 4 patients
- Patients having a 50+% decline in PSA response [4, 10]: 2 patients
- Patients with the desired PSA response [4, 10]: 6 patients
- Peak and AUC concentrations ([4]; human, in vivo): higher peak and AUC concentrations
- Patients on-study for 4 months or longer ([4]; of 35 patients): Eight out of the 35 patients
- Patients on-study for 6 months or longer ([4]; of 35 patients): 3 patients
- D/P refractory patients who have had a PSA PR ([4]; patients meeting the strict definition of refractoriness): 4/32
- Tolerability ([4]; pulsatile dose administration): well tolerated
- D/P chemoresistance ([4]; pulsatile dose administration, some patients with CRPC): overcomes D/P chemoresistance in some patients with CRPC
- Responses, time-to-event plot ([4]; taxotere-refractory patients (37 eligible; 21 with measurable disease), AT-101 40 mg BID×3 days q 3 weeks added to taxotere/prednisone): multiple durable responses
- RECIST responses ([4]; taxotere-refractory patients, AT-101 40 mg BID×3 days q 3 weeks added to taxotere/prednisone): RECIST partial responses are observed
- On-treatment toxicities [5, 11]: grade 2 peripheral neuropathy
- Time disease remained stable on study drug [5, 11]: approximately 939 days
- On treatment grade 1 toxicities [5, 12]: general body aches, nausea, flatulence, headache, fatigue, hypomagnesemia, vomiting, hypokalemia and diarrhea
- On treatment grade 2 toxicities [5, 12]: weight loss, nausea, vomiting
- Time disease remained stable on study ([5]; Patient 2, neuroendocrine carcinoma, 30 mg b.i.d. times 3 days every other week, 18 cycles): 534 days
- On treatment grade 3 toxicity ([5]; Patient 2, considered serious, determined to be unrelated to AT-101 treatment): small bowel obstruction
- Patients with clinical benefit (prolonged progression free period of more than 1 year) ([5]; among 37 patients, b.i.d. times 3 days every other week): two patients had clinical benefit
- RECIST SD (stable disease) [6]: no RECIST SD (stable disease)
- PSA PRs ([6]; compared with pulsatile dosing with D/P): fewer PSA PRs

SMILES: Cc1cc2c(C(C)C)c(O)c(O)c(C=O)c2c(O)c1-c1c(C)cc2c(C(C)C)c(O)c(O)c(C=O)c2c1O [Gossypol, gossypol]
- Binding to Bcl-2 at the BH3 binding groove (Bcl-2): shown to bind
- Binding to Bcl-XL at the BH3 binding groove (Bcl-XL): shown to bind
- Binding to Mcl-1 at the BH3 binding groove (Mcl-1): shown to bind

SMILES: CC[C@@]1(O)C(=O)OCc2c1cc1n(c2=O)Cc2cc3c(CN(C)C)c(O)ccc3nc2-1 [topotecan HCl, (S)-10-[(dimethylamino)methyl]-4-ethyl-4,9-dihydroxy-1H-pyrano[3′,4′:6,7] indolizino [1,2-b] quinoline-3,14-(4H,12H)-dione monohydrochloride]
- Median progression free survival (PFS) [7]: 13.1 weeks
- ORR [7]: 44%
